# Measurements taken from the supplement of paper PMC10307832.
# Experiments:
# Experiment in all cases: relative viability (nuclei count vs DMSO), 5 days (fraction); higher = more cells survive
# HCC-78 = system: HCC-78
# Summary of the method: (§1)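 One day after seeding in 1536-well plates, lung cancer cell lines were dosed by pin tool. Dosing was either single-drug or a fixed anchor-drug dose plus five library-drug doses (not always all listed) in √10 steps. After 5 days, nuclei were stained in one fix-and-stain step and counted on 4× images, and relative viability is the nuclei count of treated wells over that of vehicle wells, given as the median of duplicate plates.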
# EBC-1 = system: EBC-1
# Summary of the method: as §1
# NCI-H1975 = system: NCI-H1975
# Summary of the method: as §1
# NCI-H1703 = system: NCI-H1703
# Summary of the method: as §1
# A549 = system: A549
# Summary of the method: as §1
# NCI-H1734 = system: NCI-H1734
# Summary of the method: as §1
# IA-LM = system: IA-LM
# Summary of the method: as §1
# LXF-289 = system: LXF-289
# Summary of the method: as §1
# 201T = system: 201T
# Summary of the method: as §1
# Calu-6 = system: Calu-6
# Summary of the method: as §1
# NCI-H1299 = system: NCI-H1299
# Summary of the method: as §1
# HARA = system: HARA
# Summary of the method: as §1
# NCI-H1650 = system: NCI-H1650
# Summary of the method: as §1
smiles,measurement,setting,value
COCC1(CO)C(=O)C2CCN1CC2 (stereo not drawn) [PRIMA-1MET] + C[C@]1(O)C[C@@H](c2nc(-c3ccc4ccc(-c5ccccc5)nc4c3)c3c(N)nccn32)C1 [Linsitinib] (partner 1 µM),relative viability,HCC-78; first compound 0.2 µM,0.658
same,relative viability,HCC-78; first compound 0.6325 µM,0.556
same,relative viability,HCC-78; first compound 6.325 µM,0.498
same,relative viability,HCC-78; first compound 20 µM,0.0559
same,relative viability,EBC-1; first compound 0.2 µM,1.02
same,relative viability,EBC-1; first compound 0.6325 µM,0.972
same,relative viability,EBC-1; first compound 2 µM,0.758
same,relative viability,EBC-1; first compound 6.325 µM,0.9
same,relative viability,EBC-1; first compound 20 µM,0.623
same,relative viability,NCI-H1975; first compound 0.2 µM,1.14
same,relative viability,NCI-H1975; first compound 0.6325 µM,0.838
same,relative viability,NCI-H1975; first compound 2 µM,0.875
same,relative viability,NCI-H1975; first compound 6.325 µM,1
same,relative viability,NCI-H1975; first compound 20 µM,0.826
same,relative viability,NCI-H1703; first compound 0.2 µM,0.25
same,relative viability,NCI-H1703; first compound 6.325 µM,1.29
same,relative viability,NCI-H1703; first compound 20 µM,0.0482
same,relative viability,A549; first compound 0.2 µM,0.708
same,relative viability,A549; first compound 0.6325 µM,0.559
same,relative viability,A549; first compound 2 µM,0.281
same,relative viability,A549; first compound 6.325 µM,0.598
same,relative viability,A549; first compound 20 µM,0.403
same,relative viability,NCI-H1734; first compound 0.2 µM,0.972
same,relative viability,NCI-H1734; first compound 0.6325 µM,0.808
same,relative viability,NCI-H1734; first compound 2 µM,0.824
same,relative viability,NCI-H1734; first compound 6.325 µM,0.818
same,relative viability,NCI-H1734; first compound 20 µM,0.51
same,relative viability,IA-LM; first compound 0.2 µM,0.483
same,relative viability,IA-LM; first compound 0.6325 µM,0.661
same,relative viability,IA-LM; first compound 2 µM,0.358
same,relative viability,IA-LM; first compound 6.325 µM,0.713
same,relative viability,IA-LM; first compound 20 µM,0.573
same,relative viability,LXF-289; first compound 0.2 µM,1.02
same,relative viability,LXF-289; first compound 0.6325 µM,0.958
same,relative viability,LXF-289; first compound 2 µM,1.04
same,relative viability,LXF-289; first compound 6.325 µM,0.999
same,relative viability,LXF-289; first compound 20 µM,0.89
same,relative viability,201T; first compound 0.2 µM,1.11
same,relative viability,201T; first compound 0.6325 µM,1.05
same,relative viability,201T; first compound 2 µM,0.934
same,relative viability,201T; first compound 6.325 µM,1.11
same,relative viability,201T; first compound 20 µM,1
same,relative viability,Calu-6; first compound 0.2 µM,1.02
same,relative viability,Calu-6; first compound 0.6325 µM,0.885
same,relative viability,Calu-6; first compound 2 µM,0.732
same,relative viability,Calu-6; first compound 6.325 µM,0.957
same,relative viability,Calu-6; first compound 20 µM,0.687
same,relative viability,NCI-H1299; first compound 0.2 µM,1.15
same,relative viability,NCI-H1299; first compound 0.6325 µM,0.852
same,relative viability,NCI-H1299; first compound 2 µM,1.01
same,relative viability,NCI-H1299; first compound 6.325 µM,1.05
same,relative viability,NCI-H1299; first compound 20 µM,0.917
same,relative viability,HARA; first compound 0.2 µM,1.16
same,relative viability,HARA; first compound 0.6325 µM,0.265
same,relative viability,HARA; first compound 6.325 µM,0.903
same,relative viability,HARA; first compound 20 µM,0.874
COCC1(CO)C(=O)C2CCN1CC2 (stereo not drawn) [PRIMA-1MET] + CS(=O)(=O)N1CCN(Cc2cc3nc(-c4cccc5[nH]ncc45)nc(N4CCOCC4)c3s2)CC1 [Pictilisib] (partner 1 µM),relative viability,HCC-78; first compound 0.2 µM,0.226
same,relative viability,HCC-78; first compound 0.6325 µM,0.222
same,relative viability,HCC-78; first compound 6.325 µM,0.138
same,relative viability,HCC-78; first compound 20 µM,0.0597
same,relative viability,EBC-1; first compound 0.2 µM,0.414
same,relative viability,EBC-1; first compound 0.6325 µM,0.381
same,relative viability,EBC-1; first compound 2 µM,0.402
same,relative viability,EBC-1; first compound 6.325 µM,0.434
same,relative viability,EBC-1; first compound 20 µM,0.12
same,relative viability,NCI-H1975; first compound 0.2 µM,0.294
same,relative viability,NCI-H1975; first compound 0.6325 µM,0.291
same,relative viability,NCI-H1975; first compound 2 µM,0.27
same,relative viability,NCI-H1975; first compound 6.325 µM,0.311
same,relative viability,NCI-H1975; first compound 20 µM,0.248
same,relative viability,NCI-H1703; first compound 0.2 µM,0.275
same,relative viability,NCI-H1703; first compound 2 µM,0.255
same,relative viability,NCI-H1703; first compound 6.325 µM,0.293
same,relative viability,NCI-H1703; first compound 20 µM,0.0333
same,relative viability,NCI-H1650; first compound 0.2 µM,0.618
same,relative viability,NCI-H1650; first compound 0.6325 µM,0.483
same,relative viability,NCI-H1650; first compound 2 µM,0.311
same,relative viability,NCI-H1650; first compound 6.325 µM,0.527
same,relative viability,NCI-H1650; first compound 20 µM,0.209
same,relative viability,A549; first compound 0.2 µM,0.581
same,relative viability,A549; first compound 0.6325 µM,0.403
same,relative viability,A549; first compound 2 µM,0.497
same,relative viability,A549; first compound 6.325 µM,0.543
same,relative viability,A549; first compound 20 µM,0.421
same,relative viability,NCI-H1734; first compound 0.2 µM,0.446
same,relative viability,NCI-H1734; first compound 0.6325 µM,0.465
same,relative viability,NCI-H1734; first compound 2 µM,0.408
same,relative viability,NCI-H1734; first compound 6.325 µM,0.386
same,relative viability,NCI-H1734; first compound 20 µM,0.0877
same,relative viability,IA-LM; first compound 0.2 µM,0.476
same,relative viability,IA-LM; first compound 0.6325 µM,0.253
same,relative viability,IA-LM; first compound 2 µM,0.355
same,relative viability,IA-LM; first compound 6.325 µM,0.404
same,relative viability,IA-LM; first compound 20 µM,0.326
same,relative viability,LXF-289; first compound 0.2 µM,0.691
same,relative viability,LXF-289; first compound 0.6325 µM,0.743
same,relative viability,LXF-289; first compound 2 µM,0.531
same,relative viability,LXF-289; first compound 6.325 µM,0.717
same,relative viability,LXF-289; first compound 20 µM,0.761
same,relative viability,201T; first compound 0.2 µM,0.709
same,relative viability,201T; first compound 0.6325 µM,0.593
same,relative viability,201T; first compound 2 µM,0.525
same,relative viability,201T; first compound 6.325 µM,0.741
same,relative viability,201T; first compound 20 µM,0.694
same,relative viability,Calu-6; first compound 0.2 µM,0.945
same,relative viability,Calu-6; first compound 0.6325 µM,0.873
same,relative viability,Calu-6; first compound 2 µM,1.07
same,relative viability,Calu-6; first compound 6.325 µM,0.917
same,relative viability,Calu-6; first compound 20 µM,0.563
same,relative viability,NCI-H1299; first compound 0.2 µM,0.956
same,relative viability,NCI-H1299; first compound 0.6325 µM,0.782
same,relative viability,NCI-H1299; first compound 2 µM,0.345
same,relative viability,NCI-H1299; first compound 6.325 µM,0.808
same,relative viability,NCI-H1299; first compound 20 µM,0.0251
same,relative viability,HARA; first compound 0.2 µM,0.374
same,relative viability,HARA; first compound 0.6325 µM,0.417
same,relative viability,HARA; first compound 6.325 µM,0.446
same,relative viability,HARA; first compound 20 µM,0.403
